Measurements: PubChem BioAssay (NCI)
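Tested at 5 concentrations; 48 h exposure; 96-well plates; endpoints linearly interpolated, else capped at highest concentration. The concentration for full growth arrest is given as TGI.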

Columns and labels:
Test in all cases: inhibition of tumour cell growth, NCI panel, 48 h
[1] = system: NCI/ADR-RES ovarian
[2] = system: HOP-62 NSCLC
[3] = system: EKVX NSCLC
[4] = system: MDA-MB-231 breast
[5] = system: OVCAR-3 ovarian
[6] = system: OVCAR-5 ovarian
[7] = system: COLO 205 colon
[8] = system: CCRF-CEM leukemia
[9] = system: HCC-2998 colon
[10] = system: SW-620 colon
[11] = system: SK-MEL-2 melanoma
[12] = system: IGROV1 ovarian
[13] = system: K-562 leukemia
[14] = system: SF-295 CNS
[15] = system: T-47D breast
[16] = system: UACC-62 melanoma
[17] = system: NCI-H460 lung
[18] = system: SR leukemia
[19] = system: SK-OV-3 ovarian
[20] = system: HOP-92 NSCLC
[21] = system: A498 renal
[22] = system: U251 CNS
[23] = system: SF-539 CNS
[24] = system: HT29 colon
[25] = system: HS 578T breast
[26] = system: LOX IMVI melanoma
[27] = system: A549 NSCLC
[28] = system: HL-60(TB) leukemia
[29] = system: OVCAR-4 ovarian
[30] = system: OVCAR-8 ovarian
[31] = system: MDA-N
[32] = system: MCF7 breast
[33] = system: SNB-75 CNS
[34] = system: RXF 393 renal
[35] = system: M14 melanoma
[36] = system: HCT-116 colon
[37] = system: UO-31 renal
[38] = system: CAKI-1 renal
[39] = system: SK-MEL-28 melanoma
[40] = system: SF-268 CNS
[41] = system: HCT-15 colon
[42] = system: BT-549 breast
[43] = system: PC-3 prostate
[44] = system: NCI-H23 lung
[45] = system: UACC-257 melanoma
[46] = system: NCI-H226 lung
[47] = system: TK-10 renal
[48] = system: MALME-3M melanoma
[49] = system: DU-145 prostate
[50] = system: SK-MEL-5 melanoma
[51] = system: MDA-MB-435
[52] = system: MOLT-4 leukemia
[53] = system: ACHN renal
[54] = system: NCI-H522 lung
[55] = system: SN12C renal
[56] = system: SNB-19 CNS
[57] = system: 786-0 renal
[58] = system: RPMI-8226 leukemia

## COC(c1ccc(C(C)(C)C)cc1)(c1ccc(C(C)(C)C)cc1)c1cc(C(O)(c2cc(C(OC)(c3ccc(C(C)(C)C)cc3)c3ccc(C(C)(C)C)cc3)c(C)cc2C)c2cc(C(OC)(c3ccc(C(C)(C)C)cc3)c3ccc(C(C)(C)C)cc3)c(C)cc2C)c(C)cc1C
[1]
  TGI: > 100 µM
[2]
  TGI: > 100 µM
[3]
  TGI: > 100 µM
[4]
  TGI: > 100 µM
[5]
  TGI: > 100 µM
[6]
  TGI: > 100 µM
[7]
  TGI: > 100 µM
[8]
  TGI: > 100 µM
[9]
  TGI: > 100 µM
[10]
  TGI: > 100 µM
[11]
  TGI: > 100 µM
[12]
  TGI: > 100 µM
[13]
  TGI: > 100 µM
[14]
  TGI: > 100 µM
[15]
  TGI: > 100 µM
[16]
  TGI: > 100 µM
[17]
  TGI: > 100 µM
[18]
  TGI: > 100 µM
[19]
  TGI: > 100 µM
[20]
  TGI: > 100 µM
[21]
  TGI: > 100 µM
[22]
  TGI: > 100 µM
[23]
  TGI: > 100 µM
[24]
  TGI: > 100 µM
[25]
  TGI: > 100 µM
[26]
  TGI: > 100 µM
[27]
  TGI: > 100 µM
[28]
  TGI: > 100 µM
[29]
  TGI: > 100 µM
[30]
  TGI: > 100 µM
[31]
  TGI: > 100 µM
[32]
  TGI: > 100 µM
[33]
  TGI: > 100 µM
[34]
  TGI: > 100 µM
[35]
  TGI: > 100 µM
[36]
  TGI: > 100 µM
[37]
  TGI: > 100 µM
[38]
  TGI: > 100 µM
[39]
  TGI: > 100 µM
[40]
  TGI: > 100 µM
[41]
  TGI: > 100 µM
[42]
  TGI: > 100 µM
[43]
  TGI: > 100 µM
[44]
  TGI: > 100 µM
[45]
  TGI: > 100 µM
[46]
  TGI: > 100 µM
[47]
  TGI: > 100 µM
[48]
  TGI: > 100 µM
[49]
  TGI: > 100 µM
[50]
  TGI: > 100 µM
[51]
  TGI: > 100 µM
[52]
  TGI: > 100 µM

## CN(C)c1ccc2c(c1)oc(=O)c1ccccc12
[1]
  TGI: 44.9 µM
[53]
  TGI: 44.6 µM
[2]
  TGI: 65.6 µM
[3]
  TGI: 52.3 µM
[4]
  TGI: 34.4 µM
[5]
  TGI: 16.4 µM
[6]
  TGI: 30.2 µM
[7]
  TGI: 24.7 µM
[8]
  TGI: 27.9 µM
[9]
  TGI: 28.8 µM
[54]
  TGI: 20.9 µM
[55]
  TGI: 25.8 µM
[10]
  TGI: 23.4 µM
[56]
  TGI: 28.3 µM
[11]
  TGI: 23.2 µM
[12]
  TGI: 36.7 µM
[13]
  TGI: 26.9 µM
[14]
  TGI: 48.2 µM
[15]
  TGI: 28.4 µM
[16]
  TGI: 30.4 µM
[17]
  TGI: 58 µM
[18]
  TGI: 21.5 µM
[20]
  TGI: 30 µM
[21]
  TGI: 33 µM
[22]
  TGI: 24.3 µM
[23]
  TGI: 35.5 µM
[24]
  TGI: 26.1 µM
[25]
  TGI: 97.2 µM
[26]
  TGI: 18.7 µM
[57]
  TGI: 26.5 µM
[27]
  TGI: 34.6 µM
[28]
  TGI: 20.3 µM
[29]
  TGI: 28.2 µM
[30]
  TGI: 25.4 µM
[31]
  TGI: 26.7 µM
[32]
  TGI: 17.1 µM
[33]
  TGI: 31.9 µM
[34]
  TGI: 19.3 µM
[35]
  TGI: 26.5 µM
[36]
  TGI: 25.9 µM
[38]
  TGI: 26.1 µM
[39]
  TGI: 34.3 µM
[40]
  TGI: 22.7 µM
[41]
  TGI: 27 µM
[42]
  TGI: 17.1 µM
[43]
  TGI: 30.5 µM
[44]
  TGI: 22.4 µM
[45]
  TGI: 28.3 µM
[46]
  TGI: 31.9 µM
[47]
  TGI: 40 µM
[48]
  TGI: 24.5 µM
[49]
  TGI: 23 µM
[50]
  TGI: 22.8 µM
[58]
  TGI: 28.8 µM
[51]
  TGI: 23.1 µM
[52]
  TGI: 73.3 µM
